These results are taken from ChEMBL document CHEMBL4342469, “Substituent Position of Iminocyclitols Determines the Potency and Selectivity for Gut Microbial Xenobiotic-Reactivating Enzymes” (J Med Chem, 2020).

The source made the active and inactive calls. The rule behind the calls is not given here.

A short description of assay [1]: Inhibition of Ruminococcus gnavus GUS pre-incubated for 5 to 30 mins before 4-methylumbelliferone beta-D-glucuronide substrate addition at pH […]. More on the design: species or system Mediterraneibacter gnavus.
Assay [2] is described as follows: Inhibition of Bacteroides fragilis GUS pre-incubated for 5 to 30 mins before 4-methylumbelliferone beta-D-glucuronide substrate addition at pH 5.5.
Assay [3] concerns the target T1, Beta-glucuronidase (Escherichia coli (strain K12), UniProt P05804). The assay is described as follows: Inhibition of Escherichia coli GUS pre-incubated for 5 to 30 mins before 4-methylumbelliferone beta-D-glucuronide substrate addition at pH 5.5.
The nature of assay [4]: Inhibition of Clostridium perfringens GUS pre-incubated for 5 to 30 mins before 4-methylumbelliferone beta-D-glucuronide substrate addition at pH 5.5.
Assay [5] addresses T2, Beta-glucuronidase (Bos taurus, UniProt A3KMY8).
T2 sequence (A3KMY8 whole entry): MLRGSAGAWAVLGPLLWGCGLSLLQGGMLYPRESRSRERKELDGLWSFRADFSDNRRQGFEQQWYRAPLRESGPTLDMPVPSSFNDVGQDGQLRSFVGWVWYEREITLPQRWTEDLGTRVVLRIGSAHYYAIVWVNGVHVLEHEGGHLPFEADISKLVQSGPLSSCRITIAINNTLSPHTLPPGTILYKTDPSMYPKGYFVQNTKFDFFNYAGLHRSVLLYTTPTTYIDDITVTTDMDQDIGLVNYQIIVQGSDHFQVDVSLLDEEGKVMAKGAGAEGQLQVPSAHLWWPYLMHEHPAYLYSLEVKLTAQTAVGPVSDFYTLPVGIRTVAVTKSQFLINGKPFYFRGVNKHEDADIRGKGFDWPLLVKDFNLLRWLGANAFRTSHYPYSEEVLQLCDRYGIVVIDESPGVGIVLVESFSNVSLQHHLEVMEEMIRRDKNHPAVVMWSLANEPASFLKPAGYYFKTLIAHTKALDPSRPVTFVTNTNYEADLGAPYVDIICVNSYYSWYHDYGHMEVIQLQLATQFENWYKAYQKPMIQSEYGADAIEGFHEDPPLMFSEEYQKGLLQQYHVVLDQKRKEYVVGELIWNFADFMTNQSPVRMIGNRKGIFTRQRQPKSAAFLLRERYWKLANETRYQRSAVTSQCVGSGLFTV
Nature of the assay: Inhibition of bovine GUS pre-incubated for 5 to 30 mins before 4-methylumbelliferone beta-D-glucuronide substrate addition at pH 4.5.

Assay [6] is described as follows: Inhibition of Ruminococcus gnavus GUS pre-incubated for 5 to 30 mins before 4-methylumbelliferone beta-D-glucuronide substrate addition at pH 6.7. The arrangement: species or system Mediterraneibacter gnavus.
The nature of assay [7]: Inhibition of Bacteroides fragilis GUS pre-incubated for 5 to 30 mins before 4-methylumbelliferone beta-D-glucuronide substrate addition at pH 6.7.
Assay [8] has as its target T1, Beta-glucuronidase. Nature of the assay: Inhibition of Escherichia coli GUS pre-incubated for 5 to 30 mins before 4-methylumbelliferone beta-D-glucuronide substrate addition at pH 6.7.
Assay [9] can be described thus: Inhibition of Clostridium perfringens GUS pre-incubated for 5 to 30 mins before 4-methylumbelliferone beta-D-glucuronide substrate addition at pH 6.7.
In assay [10] the target is T2, Beta-glucuronidase. The assay is described as follows: Inhibition of bovine GUS pre-incubated for 5 to 30 mins before 4-methylumbelliferone beta-D-glucuronide substrate addition at pH 6.7.
The nature of assay [11]: Selectivity index, ratio of Ki for inhibition of Bacteroides fragilis GUS pre-incubated for 5 to 30 mins before 4-methylumbelliferone beta-D-glucuronide substrate addition at pH 5.5 to Ki for inhibition of Clostridium perfringens GUS pre-incubated for 5 to 30 mins before 4-methylumbelliferone beta-D-glucuronide substrate addition at pH 5.5.
A short description of assay [12]: Selectivity index, ratio of Ki for inhibition of Ruminococcus gnavus GUS pre-incubated for 5 to 30 mins before 4-methylumbelliferone beta-D-glucuronide substrate addition at pH 5.5 to Ki for inhibition of Escherichia coli GUS pre-incubated for 5 to 30 mins before 4-methylumbelliferone beta-D-glucuronide substrate addition at pH 5.5.
Assay [13] has as its system Mediterraneibacter gnavus. The assay is described as follows: Inhibition of Ruminococcus gnavus GUS pre-incubated for 5 to 30 mins before 4-methylumbelliferone beta-D-glucuronide substrate addition up to pH 6.9.
The target in assay [14] is Beta-glucuronidase (Escherichia coli (strain K12)) (UniProt P05804). The assay is described as follows: Inhibition of Escherichia coli GUS pre-incubated for 5 to 30 mins before 4-methylumbelliferone beta-D-glucuronide substrate addition at pH 3.6 to 6.9.
Beta-glucuronidase (Escherichia coli (strain K12)), sequence (P05804 whole entry, looked up): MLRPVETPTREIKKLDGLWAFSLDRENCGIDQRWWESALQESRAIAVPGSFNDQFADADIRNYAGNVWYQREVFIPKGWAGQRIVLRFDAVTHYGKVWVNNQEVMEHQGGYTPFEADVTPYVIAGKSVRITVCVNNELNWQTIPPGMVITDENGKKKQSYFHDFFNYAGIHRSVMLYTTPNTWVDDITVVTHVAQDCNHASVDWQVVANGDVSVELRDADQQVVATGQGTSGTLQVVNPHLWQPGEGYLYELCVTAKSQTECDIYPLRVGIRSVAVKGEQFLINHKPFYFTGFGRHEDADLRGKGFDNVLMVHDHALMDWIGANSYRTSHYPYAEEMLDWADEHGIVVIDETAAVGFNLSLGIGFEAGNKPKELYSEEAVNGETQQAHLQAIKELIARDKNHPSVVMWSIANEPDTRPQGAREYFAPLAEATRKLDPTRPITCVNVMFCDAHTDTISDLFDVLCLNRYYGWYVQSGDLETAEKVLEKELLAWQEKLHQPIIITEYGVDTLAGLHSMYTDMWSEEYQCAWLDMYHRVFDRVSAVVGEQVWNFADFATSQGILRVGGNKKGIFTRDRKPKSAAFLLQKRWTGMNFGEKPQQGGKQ
Assay [15] shares this target. The assay is described as follows: Inhibition of Escherichia coli GUS pre-incubated for 5 to 30 mins before 4-methylumbelliferone beta-D-glucuronide substrate addition at pH 6.5 to 7.9.
In assay [16] the test system is Bacteroides fragilis. The assay is described as follows: Inhibition of Bacteroides fragilis GUS pre-incubated for 5 to 30 mins before 4-methylumbelliferone beta-D-glucuronide substrate addition at pH 3.6 to 6.9.
The test system of assay [17] is Bacteroides fragilis. The assay is described as follows: Inhibition of Bacteroides fragilis GUS pre-incubated for 5 to 30 mins before 4-methylumbelliferone beta-D-glucuronide substrate addition at pH 6.5 to 7.9.

Broadly, the Ki is the dissociation constant of the complex between target and ligand, obtained from inhibition or displacement. Higher therefore signals weaker binding.

T1 sequence (P05804 whole entry): as the sequence (P05804 whole entry, looked up) above

As to `CCCN1C[C@@H](O)[C@H](O)[C@@H](C(=O)O)C1`, the inhibition constant (Ki) was found to be 17.6 µM in assay [1]; 38.7 µM in assay [2]; 59.2 µM on Beta-glucuronidase [3]; 37.3 µM in assay [4]; 187 µM at Beta-glucuronidase [5]; 5.45 µM in assay [6]. Also, the Ki in assay [7] was determined as 15.5 µM; at Beta-glucuronidase [8], 41.3 µM; in [9], 51.8 µM; on Beta-glucuronidase [10], 61.2 µM. Also, the Ratio Ki in assay [11] came to 190; in [12], 700.

As for `O=C(O)[C@H]1CNC[C@@H](O)[C@@H]1O`, the Ki worked out at 0.05 µM in [1]; 0.034 µM on Beta-glucuronidase [3]; 0.011 µM in [4]; 0.048 µM at Beta-glucuronidase [5]; 0.0039 µM in assay [6]; 0.0036 µM in [7]. For the same compound, the Ki at Beta-glucuronidase [8] amounted to 0.012 µM; in [9], 0.0161 µM; at Beta-glucuronidase [10] it was 0.0122 µM. The inhibition entry (in assay [13]; in [14]; in assay [15]; in the assay on Bacteroides fragilis [16]; with Bacteroides fragilis [17]) was “Active” throughout.

With `O=C(O)[C@H]1NC[C@H](O)[C@@H](O)[C@@H]1O`, the Ki is 21 µM in [1]; 2.41 µM in assay [2]; 17.5 µM at Beta-glucuronidase [3]; 12.3 µM in [4]; 21.5 µM at Beta-glucuronidase [5].

Turning to `CCC[C@@H]1NC[C@@H](O)[C@H](O)[C@H]1C(=O)O`, the Ki in assay [1] came out at 94.6 µM; in [2] it was 7.45 µM; at Beta-glucuronidase [3] it was 0.182 µM; in [4], 0.425 µM; on Beta-glucuronidase [5], 32.2 µM; in assay [6], 51.8 µM. Moreover, the Ki in [7] amounted to 3.66 µM; at Beta-glucuronidase [8], 0.0737 µM; in [9] it was 0.179 µM; at Beta-glucuronidase [10] it was 5.87 µM.

Regarding `O=C(O)[C@H]1OC(=O)[C@H](O)[C@@H](O)[C@@H]1O`, the Ki in assay [1] worked out at 40.8 µM; in [2] it was 0.69 µM; at Beta-glucuronidase [3], 15.8 µM; in assay [4], 4.51 µM; at Beta-glucuronidase [5] it was 4.87 µM.

With `O=C(O)[C@H]1NC(=O)[C@H](O)[C@@H](O)[C@@H]1O`, the inhibition constant (Ki) amounted to 0.28 µM in assay [1]; 0.069 µM in [2]; 0.232 µM at Beta-glucuronidase [3]; 0.101 µM in assay [4]; 0.132 µM at Beta-glucuronidase [5].
